In patent US7999115B2, “Spiro antibiotic derivatives” (Actelion Pharmaceutical Ltd., priority 2006, dated 2011):
Converted amounts (≈) assume the structure as drawn.

Columns and labels:
Format in all cases: cell-based
S. aureus A798 = assay: MIC by broth microdilution (NCCLS), S. aureus A798; details: cation-adjusted Mueller-Hinton Broth, pH 7.2-7.3; for MIC: Staphylococcus aureus, A798, second table
Protocol: (§1) These assays have been performed following the description given in “Methods for dilution Antimicrobial Susceptibility Tests for Bacteria that Grow Aerobically, 4th ed.; Approved standard: NCCLS Document M7-A4; National Committee for Clinical Laboratory Standards Villanova, Pa., USA, 1997”. Minimal inhibitory concentrations (MICs; mg/l) were determined in cation-adjusted Mueller-Hinton Broth (BBL) by a microdilution method following NCCLS guidelines (National Committee for Clinical Laboratory Standards. Methods for Dilution Antimicrobial Susceptibility). The pH of the test medium was 7.2-7.3. All Example compounds were tested against several Gram positive and Gram negative bacteria.

S. pneumoniae 49619 = assay: MIC by broth microdilution (NCCLS), S. pneumoniae 49619; details: cation-adjusted Mueller-Hinton Broth, pH 7.2-7.3
Protocol: as §1

M. catarrhalis A894 = assay: MIC by broth microdilution (NCCLS), M. catarrhalis A894; details: cation-adjusted Mueller-Hinton Broth, pH 7.2-7.3
Protocol: as §1

Compound	MIC S. aureus A798 (S. aureus A798; second table)	other results
COc1ccc2nccc(NC(=O)C3CCC4(CC3)CN(c3ccc5c(c3)OCCO5)C(=O)O4)c2n1 (mixture of isomers) [Example 9, cis/trans-3-(2,3-dihydro-benzo[1,4]dioxin-6-yl)-2-oxo-1-oxa-3-aza-spiro[4.5]decane-8-carboxylic acid (6-methoxy-[1,5]naphthyridin-4-yl)-amide]	≦0.031 mg/l	
COc1ccc2nccc(CCC3CCC4(CC3)CN(c3ccc5c(c3)NC(=O)CO5)C(=O)O4)c2n1 (mixture of isomers) [Example 16, cis/trans-6-{8-[2-(6-methoxy-[1,5]naphthyridin-4-yl)-ethyl]-2-oxo-1-oxa-3-aza-spiro[4.5]dec-3-yl}-4H-benzo[1,4]oxazin-3-one]	≦0.031 mg/l	
COc1ccc2nccc(/C=C/C3CCC4(CC3)CN(c3ccc5c(c3)OCCO5)C(=O)O4)c2c1 (mixture of isomers) [Example 17, cis/trans-3-(2,3-dihydro-benzo[1,4]dioxin-6-yl)-8-[(E)-2-(6-methoxy-quinolin-4-yl)-vinyl]-1-oxa-3-aza-spiro[4.5]decan-2-one]	2 µg/mL	
COc1ccc2nccc(/C=C/C3CCC4(CC3)CN(c3ccc5c(c3)NC(=O)CS5)C(=O)O4)c2c1 (mixture of isomers) [Example 18, cis/trans-6-{8-[(E)-2-(6-methoxy-quinolin-4-yl)-vinyl]-2-oxo-1-oxa-3-aza-spiro[4.5]dec-3-yl}-4H-benzo[1,4]thiazin-3-one]	≦0.031 mg/l	MIC S. aureus A798 (S. aureus A798): ≦0.031 mg/l; MIC S. pneumoniae 49619 (S. pneumoniae 49619): 0.125 µg/mL; MIC M. catarrhalis A894 (M. catarrhalis A894): ≦0.031 mg/l
COc1ccc2nccc(C(O)CN3CCC4(CC3)CN(c3ccc5c(c3)OCCO5)C(=O)O4)c2c1 (racemic) [Example 4, 3-(2,3-dihydro-benzo[1,4]dioxin-6-yl)-8-[(2RS)-2-hydroxy-2-(6-methoxy-quinolin-4-yl)-ethyl]-1-oxa-3,8-diaza-spiro[4.5]decan-2-one]		MIC (S. aureus A798): ≤ 0.031 µg/mL
COc1ccc2nccc(C(O)CN3CCC4(CC3)CN(c3ccc5c(c3)NC(=O)CS5)C(=O)O4)c2c1 (racemic) [Example 5, 6-{8-[(2RS)-2-hydroxy-2-(6-methoxy-quinolin-4-yl)-ethyl]-2-oxo-1-oxa-3,8-diaza-spiro[4.5]dec-3-yl}-4H-benzo[1,4]thiazin-3-one]		MIC (S. aureus A798): ≤ 0.031 µg/mL
C=CC[C@@H]1CN(C[C@H](O)c2ccnc3ccc(OC)cc23)CC[C@]12CN(c1ccc3c(c1)OCCO3)C(=O)O2 (racemic) [Example 6, (5RS, 6RS)-6-allyl-3-(2,3-dihydro-benzo[1,4]dioxin-6-yl)-8-[(2RS)-2-hydroxy-2-(6-methoxy-quinolin-4-yl)-ethyl]-1-oxa-3,8-diaza-spiro[4.5]decan-2-one]		MIC (S. aureus A798): 1 µg/mL (≈ 1.88 µM)
COC(=O)C[C@@H]1CN(C[C@H](O)c2ccnc3ccc(OC)cc23)CC[C@]12CN(c1ccc3c(c1)OCCO3)C(=O)O2 (racemic) [Example 7, (5RS,6RS)-{3-(2,3-dihydro-benzo[1,4]dioxin-6-yl)-8-[(2RS)-2-hydroxy-2-(6-methoxy-quinolin-4-yl)-ethyl]-2-oxo-1-oxa-3,8-diaza-spiro[4.5]dec-6-yl}-acetic acid methyl ester]		MIC (S. aureus A798): 2 µg/mL (≈ 3.55 µM)
COc1ccc2nccc([C@@H](O)CN3CC[C@]4(CN(c5ccc6c(c5)OCCO6)C(=O)O4)[C@H](CCO)C3)c2c1 (racemic) [Example 8, (5RS, 6RS)-3-(2,3-dihydro-benzo[1,4]dioxin-6-yl)-6-(2-hydroxy-ethyl)-8-[(2RS)-2-hydroxy-2-(6-methoxy-quinolin-4-yl)-ethyl]-1-oxa-3,8-diaza-spiro[4.5]decan-2-one]		MIC (S. aureus A798): 1 µg/mL (≈ 1.87 µM)
COc1ccc2nccc(OCC3CCC4(CC3)CN(c3ccc5c(c3)OCCO5)C(=O)O4)c2c1 (stereo not drawn) [Example 2, cis-3-(2,3-dihydro-benzo[1,4]dioxin-6-yl)-8-(6-methoxy-quinolin-4-yloxymethyl)-1-oxa-3-aza-spiro[4.5]decan-2-one]	0.25 µg/mL (≈ 0.525 µM)	
COc1ccc2nccc(OCC3CCC4(CC3)CN(c3ccc5c(c3)OCCO5)C(=O)O4)c2n1 (stereo not drawn) [Example 3, cis-3-(2,3-dihydro-benzo[1,4]dioxin-6-yl)-8-(6-methoxy-[1,5]naphthyridin-4-yloxymethyl)-1-oxa-3-aza-spiro[4.5]decan-2-one]	2 µg/mL (≈ 4.19 µM)	
COc1ccc2nccc(CCC3(O)CCC4(CC3)CN(c3ccc5c(c3)OCCO5)C(=O)O4)c2n1 (stereo not drawn) [Example 10, cis or trans-3-(2,3-dihydro-benzo[1,4]dioxin-6-yl)-8-hydroxy-8-[2-(6-methoxy-[1,5]naphthyridin-4-yl)-ethyl]-1-oxa-3-aza-spiro[4.5]decan-2-one]	0.125 µg/mL (≈ 0.254 µM)	
COc1ccc2nccc(CCC3(O)CCC4(CC3)CN(c3ccc5c(c3)OCCO5)C(=O)O4)c2n1 (stereo not drawn) [Example 11, cis or trans-3-(2,3-dihydro-benzo[1,4]dioxin-6-yl)-8-hydroxy-8-[2-(6-methoxy-[1,5]naphthyridin-4-yl)-ethyl]-1-oxa-3-aza-spiro[4.5]decan-2-one]	0.25 µg/mL (≈ 0.509 µM)	
COc1ccc2nccc(CCC3(O)CCC4(CC3)CN(c3ccc5c(c3)NC(=O)CS5)C(=O)O4)c2n1 (stereo not drawn) [Example 12, cis or trans-6-{8-hydroxy-8-[2-(6-methoxy-[1,5]naphthyridin-4-yl)-ethyl]-2-oxo-1-oxa-3-aza-spiro[4.5]dec-3-yl}-4H-benzo[1,4]thiazin-3-one]	≦0.031 mg/l	
COc1ccc2nccc(CCC3(O)CCC4(CC3)CN(c3ccc5c(c3)NC(=O)CS5)C(=O)O4)c2n1 (stereo not drawn) [Example 13, cis or trans-6-{8-hydroxy-8-[2-(6-methoxy-[1,5]naphthyridin-4-yl)-ethyl]-2-oxo-1-oxa-3-aza-spiro[4.5]dec-3-yl}-4H-benzo[1,4]thiazin-3-one]	≦0.031 mg/l	
COc1ccc2nccc(CCC3(O)CCC4(CC3)CN(c3ccc5c(c3)NC(=O)CO5)C(=O)O4)c2n1 (stereo not drawn) [Example 14, cis or trans-6-{8-hydroxy-8-[2-(6-methoxy-[1,5]naphthyridin-4-yl)-ethyl]-2-oxo-1-oxa-3-aza-spiro[4.5]dec-3-yl}-4H-benzo[1,4]oxazin-3-one]	≦0.031 mg/l	
COc1ccc2nccc(CCC3(O)CCC4(CC3)CN(c3ccc5c(c3)NC(=O)CO5)C(=O)O4)c2n1 (stereo not drawn) [Example 15, cis or trans-6-{8-hydroxy-8-[2-(6-methoxy-[1,5]naphthyridin-4-yl)-ethyl]-2-oxo-1-oxa-3-aza-spiro[4.5]dec-3-yl}-4H-benzo[1,4]oxazin-3-one]	≦0.031 mg/l	
COc1ccc2ncnc(OC[C@H]3CC[C@@]4(CC3)CN(c3ccc5c(c3)OCCO5)C(=O)O4)c2c1 [Example 19, cis-3-(2,3-dihydro-benzo[1,4]dioxin-6-yl)-8-(6-methoxy-quinazolin-4-yloxymethyl)-1-oxa-3-aza-spiro[4.5]decan-2-one]	0.125 µg/mL (≈ 0.262 µM)	MIC S. aureus A798 (S. aureus A798): 0.125 µg/mL (≈ 0.262 µM); MIC S. pneumoniae 49619 (S. pneumoniae 49619): 0.25 µg/mL (≈ 0.524 µM); MIC M. catarrhalis A894 (M. catarrhalis A894): 0.5 µg/mL (≈ 1.05 µM)
(5R,6R,8S)-3-(2,3-dihydro-benzo[1,4]dioxin-6-yl)-8-[(2R)-2-hydroxy-2-(6-methoxy-[1,5]naphthyridin-4-yl)-ethyl]-6-hydroxymethyl-1,7-dioxa-3-aza-spiro[4.5]decan-2-one and (5R,6R,8S)-3-(2,3-dihydro-benzo[1,4]dioxin-6-yl)-8-[(2S)-2-hydroxy-2-(6-methoxy-[1,5]naphthyridin-4-yl)-ethyl]-6-hydroxymethyl-1,7-dioxa-3-aza-spiro[4.5]decan-2-one [Example 1]	0.5 µg/mL	
